EC (150% of control) and melting point data for three compounds are collected here from patent US9440962B2, “Benzisoxazoles” (Hoffmann-La Roche Inc., priority 2012, dated 2016).

The subject of series [1] is human embryonic stem cell derived neural stem cells (NSCs). The series can be described thus: Neural stem cell proliferation assay (neurogenesis assay, ATP levels by CellTiterGlo). It is filed as cell-based. Particulars: 96 h, compound concentration at which 150% activity of control (100%) is reached, ATP levels after 4 days incubation, dose response 8 μM to 8 nM. The method, then: Neural Stem Cell Proliferation Assay
Neurogenic properties of small molecules are determined based on the proliferation of human embryonic stem cell derived neural stem cells (NSCs) which were derived via a dual smad inhibition as previously described (Chambers, S. M., et al., Highly efficient neural conversion of human ES and iPS cells by dual inhibition of SMAD signaling, Nature biotechnology, 2009. 27(3): p. 275-80.)
Compounds respond is measured by the increase in cells based on ATP levels (Promega:CellTiterGlo®) after an incubation period of 4 days.
NSCs are thawed and expanded over 3 passages. On the 14th day, NSCs are seeded in Polyornithin/Laminin coated 384 well plates at a cell density of 21′000 cells/cm^2 in a media volume of 38 μl.
4 hours after cell seeding, compound solutions are added at a volume of 2 μl. Stock solutions of the compounds (water, 5% DMSO) are diluted to obtain a dose response (11 points, dilution factor is 2), ranging from 8 μM to 8 nM. Controls are run to consistently determine the neurogenic properties of the cells: • Negative (neutral) control is cell culture Media (final DMSO concentration: 0.25%). Positive controls are: • 1. cell culture Media+100 ng/ml FGF2 (final DMSO concentration: 0.1%) • 2. cell culture Media+20 ng/ml EGF (final DMSO concentration: 0.1%) • 3. cell culture Media+100 ng/ml Wnt3a (final DMSO concentration: 0.1%)
After 4 days incubation at 37° C., 5% CO2, the amount of ATP per well is quantified. The ATP concentration is proportional to the cell number. ATP is quantified by using the Promega CellTiterGlo® kit. The CellTiterGlo® reagents contain a cell lysis buffer, a thermo stable luciferase (UltraGlo™ recombinant luciferase), magnesium and luciferin. Luciferin reacts with ATP producing oxyluciferin, AMP and light. The luminescence signal is proportional to the ATP content.
The value of negative (neutral) control is determined for each assay plate by taking the average of 16 negative control wells. The neurogenic compound response is calculated for each compound as (compound/Negative Control)* 100.
The values of EC150 from the dose response curve are determined for each test compound. The EC150 is the compound concentration at which 150% activity of control (100%) is reached.
In general terms: In ATP-based viability assays light output follows the ATP content of the culture.

With `Clc1ccc(-c2onc3ccc(-c4ccnn4-c4ccccc4Cl)cc23)cc1` [Example 42, 3-(4-Chloro-phenyl)-5-[2-(2-chloro-phenyl)-2H-pyrazol-3-yl]-benzo[c]isoxazole], the melting point (commonly the temperature, or range, at which the solid turns liquid) worked out at 172 °C. Also, the EC (150% of control) in series [1] is 0.3 µM.

Regarding `Cc1ccc(-c2onc3ccc(-c4ccnn4-c4ccccc4Cl)cc23)cc1` [Example 43, 5-[2-(2-Chloro-phenyl)-2H-pyrazol-3-yl]-3-p-tolyl-benzo[c]isoxazole], the melting point was 176 °C. This compound also displayed an EC (150% of control) in series [1] of 0.15 µM.

Regarding `Fc1ccc(-n2nccc2-c2ccc3noc(-c4cccs4)c3c2)cc1` [Example 44, 5-[2-(4-Fluoro-phenyl)-2H-pyrazol-3-yl]-3-thiophen-2-yl-benzo[c]isoxazole], the melting point was 154 °C. The same compound displayed an EC (150% of control) in series [1] of 0.17 µM.
